# Assays:
# [1] = system: T cell proliferation; experiment: ConA-stimulated proliferation of lymph node cells from DA rats immunized with rat collagen II, [3H]-thymidine; assay type: cell-based; details: ConA 1.5 μg/ml, 48 h
# Method: draining lymph nodes collected day 9 p.i. from DA rats immunized with rat collagen II (RCII) in Freund's Incomplete Adjuvant (FIA) were used to prepare individual single cell suspensions. Lymph nodes were grinded through wire mesh and cells washed 3 times in incomplete DMEM cell culture medium. Cells were counted by trypan blue exclusion and cell suspensions of 2×10^6 cells/ml in complete DMEM prepared. 4×10^5 cells per well were seeded in flat-bottomed 96-well microtiter plates. Triplicates of each individual cell suspension were incubated with 1.5 μg/ml ConA. ConA was diluted in phosphate buffered saline, D-PBS. Spontaneous proliferation was determined by measuring proliferation in cell cultures without addition of ConA. As a positive proliferation control cells were stimulated with ConA together with 10 μl of the rabeximod vehicle, 0.01 M acetic acid. Doses of rabeximod were added in 10 μl vehicle so that the final concentrations in cell cultures ranged from 50-800 ng/ml. Cell cultures were incubated at 37° C.+5% CO2 for 48 h and 1 μCi of [^3H]-Thymidine per well was added to the cultures for the last 12 h. Cellular incorporation of [^3H]-thymidine was measured using a 1450 Microbeta Wallac Trilux Liquid Scintillation Luminescence Counter after harvesting the cells onto nitrocellulose filters.
# Individual Inhibition Indices (1.1.) were calculated by dividing the average counts per minute (cpm) value of each triplicate stimulated with ConA and rabeximod with the average cpm value of the triplicate stimulated with ConA only. The inhibition of proliferation induced by rabeximod addition was expressed as % of the positive control (ConA only), i.e. by multiplying the inhibition indices with 100.
# [2] = system: TLR2 stimulated macrophages; experiment: TNF-α production by thioglycolate-recruited peritoneal macrophages after LPS or TLR2 stimuli (ELISA); assay type: cell-based, mouse; details: 12.5 ug/ml, added 0 h to +3 h after stimulus; stronger effect if administered early
# Method: The aim was to investigate whether, after stimulation, Rabeximod has the ability to decrease production of pro-inflammatory cytokines by macrophages isolated from the peritoneal cavity after thioglycolate recruitment. B10.Q mice with/without expression of functional TLR4 matched according to sex and age were used as donors of peritoneal macrophages. Mice were injected on day −5 with sterilized 3% Thioglycolate intraperitoneally. On day 0 the peritoneal cavity was washed with ice cold PBS to collect recruited cells. The cells were counted and added to plates at a final concentration of 200 000 cells/well in medium. Rabeximod diluted in a minimal amount DMSO and then DMEM to final concentration (12.5 ug/ml) was added simultaneously (h 0) or at time points+0.5 h, +1 h or +3 hours after LPS or TLR2 stimuli (Lipomannan). Cells were incubated for 24 hours before the whole plate was frozen. TNF-α ELISA was performed after one week using antibodies from e-biosciences and detected by europium. Mice were injected on […] (1 ml) intraperitoneally. […] TNFα production was determined using a ready-SET-go! […]
# [3] = system: human peripheral blood mononuclear cells (PBMC); experiment: LPS-stimulated cytokine/chemokine release from human PBMC in vitro (multiplex, Luminex); assay type: cell-based; details: PBMC from 7 donors
# Method: The effect of Rabeximod on the release of GM-CSF, IL-113, IL-6, IL-8, TNF-α, MCP-1, MIP-1a, MIP-1β and RANTES from human peripheral blood mononuclear cells (PBMC) in vitro was evaluated. Rabeximod was tested at two concentrations (1.25 μg/ml and 12.5 μg/ml) on PBMC's isolated from 7 donors. Human PBMCs were isolated from whole blood using a Ficoll gradient. Cells ([…]) were then plated in a volume of 0.5 ml (0.5 ml of vehicle control (1% methanol in RPMI 1640 media) or rabeximod resuspended in methanol and diluted to a concentration of […] media was added). After incubation (1 h 37° C.) with LPS (0.1 mg/ml), cells were further incubated for 18-20 h before supernatant was removed for analysis of cytokine production using cytokine multiplex assays (Biosource, Nivelles, Belgium), accord-ing to the manufacturer's instructions. Data were collected using a Luminex 100 (Luminex Corporation, Austin, Tex., USA). All samples were analyzed in duplicates and a mean value for each sample was calculated.
# [4] = system: collagen-induced arthritis model; details: dark agouti rats, daily subcutaneous administration from the day of immunization; cited from earlier work
smiles,measurement,setting,value
"Cc1cc2nc3c4cc(Cl)ccc4n(CC(=O)NCCN(C)C)c3nc2cc1C [Rabeximod, 9-Chloro-2,3-dimethyl-6-(N,N-dimethylaminoethylamino-2-oxoethyl)-6H-indolo-[2,3-b]quinoxaline]",inhibition of T cell proliferation,[1]; 300 ng/ml,Approximately 50%
same,inhibition of T cell proliferation,[1]; 500 ng/ml,approximately 80%
same,inhibition at 0.3 µg/mL,"[1]; Rattus norvegicus, T-cell, 300 ng/ml",≥ 50%
same,inhibition at 0.5 µg/mL,"[1]; Rattus norvegicus, T-cell, 500 ng/ml",≥ 80%
same,TNF-α production from TLR2 stimulated macrophages,[2],decreases
same,LPS-stimulated production of IL-6,[3]; 1.25 μg/ml,significantly reduced
same,LPS-stimulated production of MIP-1α,[3]; 1.25 μg/ml,significantly reduced
same,LPS-stimulated production of MIP-1β,[3]; 1.25 μg/ml,significantly reduced
same,LPS-stimulated production of TNFα,[3]; 1.25 μg/ml,significantly reduced
same,LPS-stimulated production of RANTES,[3]; 12.5 μg/ml,all but RANTES were reduced
same,LPS-stimulated production of pro-inflammatory cytokines and chemokines other than RANTES,[3]; 12.5 μg/ml,reduced
same,arthritis severity,[4],suppressed
same,onset of clinical arthritis,[4],significantly delayed
